According to patent publication US6291405A, “Glycol based drilling fluid” (M-I LLC, priority 1998, dated 2001):

Experiments:
[1] = Viscosity properties of glycols, Fann 35A viscometer readings; assay type: physicochemical
Description: Readings were taken on a Fann 35A viscometer at 600 and 300 rpm both at room temperature and 120° F.

[2] = cited from earlier work; for toxicity ranking: based on laboratory test data, direct ingestion; for LD50: single-dose oral
[3] = Gumbo shale sticking test, diethylene glycol/water plus 10% GMO; settings: in words
Description: This test was conducted using the test method described in example 2, except each test sample contained 10% glycerol monooleate (GMO) as the antisticking agent.

Molecule | Fann 35A viscometer reading ([1]; 120° F, 300 rpm) | Fann 35A viscometer reading ([1]; 120° F, 600 rpm) | Fann 35A viscometer reading ([1]; Room Temperature, 300 rpm) | Fann 35A viscometer reading ([1]; Room Temperature, 600 rpm) | toxicity ranking [2] | LD50 [2] | antisticking properties [3]
OCC(O)CO [Glycerine, reference compound] | 135 | 262 | > 300 | > 300 |  |  | 
OCCO [Ethylene Glycol, ethylene glycol] |  |  |  |  | the most toxic | 6-12 gm/KG | 
butylene glycol |  |  |  |  | the least toxic | 23-30 gm/KG | 
CC(O)COC(C)COC(C)CO (centres unmarked) [Tripropylene Glycol, tripropylene glycol] | 18 | 34 | 59 | 116 | the most toxic |  | 
OCCOCCOCCO [Triethylene Glycol, triethylene glycol] | 16 | 31 | 42 | 83 | followed by diethylene, triethylene, and dipropylene glycols | 16-22 gm/KG | 
CC(CO)CO [2-Methyl Propyl 1,3-Diol, reference compound] | 42 | 80 | 216 | > 300 |  |  | 
CCCCCCCC/C=C\CCCCCCCC(=O)OCC(O)CO (centres unmarked) [glycerol monooleate] |  |  |  |  |  |  | improved the antisticking properties of the diethylene glycol fluids
dipropylene glycol | 21 | 41 | 82 | 163 | followed by diethylene, triethylene, and dipropylene glycols | ~ 15 gm/KG | 
OCCOCCO [Diethylene Glycol, diethylene glycol] |  |  |  |  | followed by diethylene, triethylene, and dipropylene glycols | 16-21 gm/KG | 
CC(O)CO (centres unmarked) [Propylene Glycol, propylene glycol] | 15 | 28 | 47 | 92 | the least toxic | 21-34 gm/KG | 
